Key:
Type in all cases: in vivo
kochia (Kochia scoparia) [1] = test: Test A preemergence, visual injury rating; details: for Plant response rating, Kochia: 31 g ai/ha, 0 to 100 scale, 0 no effect, 100 complete control; for pest or weed control at 125 g/ha: Bassia scoparia, pre-emergence, 240 h, read-out: Kochia plant response rating
Summary of the method: (§1)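 Scoring: eye-based comparison with untreated controls, 0 for no effect through 100 for complete control, at about day 10. Treatments: directed soil spray preemergence; foliar spray postemergence on 2–10 cm plants at the one- to two-leaf stage. Medium: loam soil with sand.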

[2] = system: ragweed (common ragweed, Ambrosia elatior); test: Test A preemergence, visual injury rating; details: for Plant response rating, Ragweed: 31 g ai/ha, 0 to 100 scale, 0 no effect, 100 complete control; for pest or weed control at 125 g/ha: Ambrosia artemisiifolia, pre-emergence, 240 h, read-out: Ragweed plant response rating
Summary of the method: as §1

[3] = system: giant foxtail (Setaria faberii); test: Test A preemergence, visual injury rating; details: for Plant response rating, Foxtail, Giant: 31 g ai/ha, 0 to 100 scale, 0 no effect, 100 complete control; for pest or weed control at 125 g/ha: Setaria faberi, pre-emergence, 240 h, read-out: Foxtail, Giant plant response rating
Summary of the method: as §1

[4] = system: barnyardgrass (Echinochloa crus-galli); test: Test A preemergence, visual injury rating; details: for Plant response rating, Barnyardgrass: 31 g ai/ha, 0 to 100 scale, 0 no effect, 100 complete control; for pest or weed control at 125 g/ha: Echinochloa crus-galli, pre-emergence, 240 h, read-out: Barnyardgrass plant response rating
Summary of the method: as §1

[5] = system: pigweed (Amaranthus retroflexus); test: Test A preemergence, visual injury rating; details: for Plant response rating, Pigweed: 31 g ai/ha, 0 to 100 scale, 0 no effect, 100 complete control; for pest or weed control at 125 g/ha: Amaranthus retroflexus, pre-emergence, 240 h, read-out: Pigweed plant response rating
Summary of the method: as §1

[6] = system: Italian ryegrass (Lolium multiflorum); test: Test A preemergence, visual injury rating; details: for Plant response rating, Ryegrass, Italian: 31 g ai/ha, 0 to 100 scale, 0 no effect, 100 complete control; for pest or weed control at 125 g/ha: Lolium multiflorum, pre-emergence, 240 h, read-out: Ryegrass, Italian plant response rating
Summary of the method: as §1

[7] = system: sedge, umbrella (small-flower umbrella sedge, Cyperus difformis); test: Test B flooded paddy test, plant response rating; details: 250 g ai/ha, Flood, scale of 0 to 100 where 0 is no effect and 100 is complete control, 13 to 15 days; for pest or weed control at 250 g/ha: Cyperus difformis, 312 h
Summary of the method: (§2)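 Flooded 3 cm over soil; compound into paddy water; depth kept constant. Greenhouse 13–15 d.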

rice (Oryza sativa) = test: Test B flooded paddy test, plant response rating; details: 250 g ai/ha, Flood, scale of 0 to 100 where 0 is no effect and 100 is complete control, 13 to 15 days; for plant injury at 250 g/ha: Oryza sativa, 312 h
Summary of the method: as §2

[8] = system: barnyardgrass (Echinochloa crus-galli); test: Test B flooded paddy test, plant response rating; details: 250 g ai/ha, Flood, scale of 0 to 100 where 0 is no effect and 100 is complete control, 13 to 15 days; for pest or weed control at 250 g/ha: Echinochloa crus-galli, 312 h
Summary of the method: as §2

[9] = system: ducksalad (Heteranthera limosa); test: Test B flooded paddy test, plant response rating; details: 250 g ai/ha, Flood, scale of 0 to 100 where 0 is no effect and 100 is complete control, 13 to 15 days; for pest or weed control at 250 g/ha: Heteranthera limosa, 312 h
Summary of the method: as §2

corn (Zea mays) = test: Test A postemergence, visual injury rating; details: 0 is no effect, 100 is complete control; for Corn plant response rating: 31 g ai/ha, 0 to 100 scale, approximately 10 days; for plant injury at 125 g/ha: Zea mays, post-emergence, 240 h, read-out: Corn plant response rating (0 to 100 scale)
Summary of the method: as §1

kochia (Kochia scoparia) [10] = test: Test A postemergence, visual injury rating; details: 0 is no effect, 100 is complete control; for Kochia plant response rating: 31 g ai/ha, 0 to 100 scale, approximately 10 days; for pest or weed control at 125 g/ha: Bassia scoparia, post-emergence, 240 h, read-out: Kochia plant response rating (0 to 100 scale)
Summary of the method: as §1

[11] = system: ragweed (common ragweed, Ambrosia elatior); test: Test A postemergence, visual injury rating; details: 0 is no effect, 100 is complete control; for Ragweed plant response rating: 31 g ai/ha, 0 to 100 scale, approximately 10 days; for pest or weed control at 125 g/ha: Ambrosia artemisiifolia, post-emergence, 240 h, read-out: Ragweed plant response rating (0 to 100 scale)
Summary of the method: as §1

[12] = system: blackgrass (Alopecurus myosuroides); test: Test A postemergence, visual injury rating; details: 0 is no effect, 100 is complete control; for Blackgrass plant response rating: 31 g ai/ha, 0 to 100 scale, approximately 10 days; for pest or weed control at 125 g/ha: Alopecurus myosuroides, post-emergence, 240 h, read-out: Blackgrass plant response rating (0 to 100 scale)
Summary of the method: as §1

[13] = system: giant foxtail (Setaria faberii); test: Test A postemergence, visual injury rating; details: 0 is no effect, 100 is complete control; for Foxtail, Giant plant response rating: 31 g ai/ha, 0 to 100 scale, approximately 10 days; for pest or weed control at 125 g/ha: Setaria faberi, post-emergence, 240 h, read-out: Foxtail, Giant plant response rating (0 to 100 scale)
Summary of the method: as §1

[14] = system: barnyardgrass (Echinochloa crus-galli); test: Test A postemergence, visual injury rating; details: 0 is no effect, 100 is complete control; for Barnyardgrass plant response rating: 31 g ai/ha, 0 to 100 scale, approximately 10 days; for pest or weed control at 125 g/ha: Echinochloa crus-galli, post-emergence, 240 h, read-out: Barnyardgrass plant response rating (0 to 100 scale)
Summary of the method: as §1

[15] = system: pigweed (Amaranthus retroflexus); test: Test A postemergence, visual injury rating; details: 0 is no effect, 100 is complete control; for Pigweed plant response rating: 31 g ai/ha, 0 to 100 scale, approximately 10 days; for pest or weed control at 125 g/ha: Amaranthus retroflexus, post-emergence, 240 h, read-out: Pigweed plant response rating (0 to 100 scale)
Summary of the method: as §1

[16] = system: galium (catchweed bedstraw, Galium aparine); test: Test A postemergence, visual injury rating; details: 0 is no effect, 100 is complete control; for Galium plant response rating: 31 g ai/ha, 0 to 100 scale, approximately 10 days; for pest or weed control at 125 g/ha: Galium, post-emergence, 240 h, read-out: Galium plant response rating (0 to 100 scale)
Summary of the method: as §1

[17] = system: wheat (Triticum aestivum); test: Test A postemergence, visual injury rating; details: 0 is no effect, 100 is complete control; for Wheat plant response rating: 31 g ai/ha, 0 to 100 scale, approximately 10 days; for plant injury at 125 g/ha: Triticum aestivum, post-emergence, 240 h, read-out: Wheat plant response rating (0 to 100 scale)
Summary of the method: as §1

[18] = system: Italian ryegrass (Lolium multiflorum); test: Test A postemergence, visual injury rating; details: 0 is no effect, 100 is complete control; for Ryegrass, Italian plant response rating: 31 g ai/ha, 0 to 100 scale, approximately 10 days; for pest or weed control at 125 g/ha: Lolium multiflorum, post-emergence, 240 h, read-out: Ryegrass, Italian plant response rating (0 to 100 scale)
Summary of the method: as §1

[19] = 125 g ai/ha, 0 to 100 scale (0 no effect, 100 complete control)

SMILES | Plant response rating, Kochia (kochia (Kochia scoparia) [1]) | pest or weed control at 125 g/ha (kochia (Kochia scoparia) [1]; [19]) [%] | Plant response rating, Ragweed [2] | pest or weed control at 125 g/ha [2, 19] [%] | Plant response rating, Foxtail, Giant [3] | pest or weed control at 125 g/ha [3, 19] [%] | Plant response rating, Barnyardgrass [4] | pest or weed control at 125 g/ha [4, 19] [%] | Plant response rating, Pigweed [5] | Plant response rating, Ryegrass, Italian [6] | Corn plant response rating (corn (Zea mays)) | Kochia plant response rating (kochia (Kochia scoparia) [10]) | Ragweed plant response rating [11] | Blackgrass plant response rating [12] | Foxtail, Giant plant response rating [13] | Barnyardgrass plant response rating [14] | Pigweed plant response rating [15] | Galium plant response rating [16] | Wheat plant response rating [17] | Ryegrass, Italian plant response rating [18] | also measured
O=C(OCCC(F)(F)F)c1cc(C(F)(F)F)ccc1Oc1ncc(Cl)cn1 [Compound 53] | 0 | 0 | 0 | 0 | 0 | 0 | 0 | 0 | 0 | 0 | 0 | 0 | 0 | 0 | 0 | 0 | 0 | 0 | 0 | 0 | pest or weed control at 125 g/ha [5, 19]: 0%; pest or weed control at 125 g/ha [6, 19]: 0%; pest or weed control at 250 g/ha [7]: 0%; plant injury at 250 g/ha (rice (Oryza sativa)): 0%; pest or weed control at 250 g/ha [8]: 0%; pest or weed control at 250 g/ha [9]: 0%; plant injury at 125 g/ha (corn (Zea mays); 125 g ai/ha): 0%; pest or weed control at 125 g/ha (kochia (Kochia scoparia) [10]; 125 g ai/ha): 0%; pest or weed control at 125 g/ha ([11]; 125 g ai/ha): 0%; pest or weed control at 125 g/ha ([12]; 125 g ai/ha): 0%; pest or weed control at 125 g/ha ([13]; 125 g ai/ha): 0%; pest or weed control at 125 g/ha ([14]; 125 g ai/ha): 0%; pest or weed control at 125 g/ha ([15]; 125 g ai/ha): 0%; pest or weed control at 125 g/ha ([16]; 125 g ai/ha): 0%; plant injury at 125 g/ha ([17]; 125 g ai/ha): 0%; pest or weed control at 125 g/ha ([18]; 125 g ai/ha): 0%
Cc1ccc(Oc2ncc(Cl)cn2)c(C(=O)OCCC(F)(F)F)c1 [Compound 54] | 0 | 0 | 0 | 0 | 0 | 0 | 0 | 0 | 0 | 0 | 0 | 0 | 0 | 0 | 0 | 0 | 0 | 0 | 0 | 0 | pest or weed control at 125 g/ha [5, 19]: 0%; pest or weed control at 125 g/ha [6, 19]: 0%; pest or weed control at 250 g/ha [7]: 0%; plant injury at 250 g/ha (rice (Oryza sativa)): 0%; pest or weed control at 250 g/ha [8]: 0%; pest or weed control at 250 g/ha [9]: 0%; plant injury at 125 g/ha (corn (Zea mays); 125 g ai/ha): 0%; pest or weed control at 125 g/ha (kochia (Kochia scoparia) [10]; 125 g ai/ha): 0%; pest or weed control at 125 g/ha ([11]; 125 g ai/ha): 0%; pest or weed control at 125 g/ha ([12]; 125 g ai/ha): 0%; pest or weed control at 125 g/ha ([13]; 125 g ai/ha): 0%; pest or weed control at 125 g/ha ([14]; 125 g ai/ha): 0%; pest or weed control at 125 g/ha ([15]; 125 g ai/ha): 0%; pest or weed control at 125 g/ha ([16]; 125 g ai/ha): 0%; plant injury at 125 g/ha ([17]; 125 g ai/ha): 0%; pest or weed control at 125 g/ha ([18]; 125 g ai/ha): 0%
FC(F)(F)C(F)(F)COCc1c(Br)cccc1Oc1ncc(Cl)cn1 [Compound 63] | 0 | – | 0 | – | 10 | – | 40 | – | 0 | 0 | 10 | 20 | 0 | 0 | 0 | 0 | 20 | 0 | 0 | 0 | Kochia plant response rating (kochia (Kochia scoparia) [1]; [19]): 0; Ragweed plant response rating [2, 19]: 0; Foxtail, Giant plant response rating [3, 19]: 90; Barnyardgrass plant response rating [4, 19]: 100; Pigweed plant response rating [5, 19]: 90; Ryegrass, Italian plant response rating [6, 19]: 0; Plant response rating, Sedge, Umbrella [7]: 100; Plant response rating, Rice (rice (Oryza sativa)): 25; Plant response rating, Barnyardgrass [8]: 45; Plant response rating, Ducksalad [9]: 100; Corn plant response rating (0 to 100 scale) (corn (Zea mays); 125 g ai/ha): 30; Kochia plant response rating (0 to 100 scale) (kochia (Kochia scoparia) [10]; 125 g ai/ha): 50; Ragweed plant response rating (0 to 100 scale) ([11]; 125 g ai/ha): 0; Blackgrass plant response rating (0 to 100 scale) ([12]; 125 g ai/ha): 0; Foxtail, Giant plant response rating (0 to 100 scale) ([13]; 125 g ai/ha): 30; Barnyardgrass plant response rating (0 to 100 scale) ([14]; 125 g ai/ha): 10; Pigweed plant response rating (0 to 100 scale) ([15]; 125 g ai/ha): 60; Galium plant response rating (0 to 100 scale) ([16]; 125 g ai/ha): 30; Wheat plant response rating (0 to 100 scale) ([17]; 125 g ai/ha): 0; Ryegrass, Italian plant response rating (0 to 100 scale) ([18]; 125 g ai/ha): 0
